Laboratory results reported in US20080242685A1, “Chemical Compounds” (Smithkline Beecham Corporation, priority 2005, published 2008).

Target: T1, Recombinant human IKKβ (residues 1-737) (Homo sapiens, UniProt O14920)
T1 construct: Recombinant human IKKβ (residues 1-737); GST (C); made in house
T1 sequence (O14920 1-737): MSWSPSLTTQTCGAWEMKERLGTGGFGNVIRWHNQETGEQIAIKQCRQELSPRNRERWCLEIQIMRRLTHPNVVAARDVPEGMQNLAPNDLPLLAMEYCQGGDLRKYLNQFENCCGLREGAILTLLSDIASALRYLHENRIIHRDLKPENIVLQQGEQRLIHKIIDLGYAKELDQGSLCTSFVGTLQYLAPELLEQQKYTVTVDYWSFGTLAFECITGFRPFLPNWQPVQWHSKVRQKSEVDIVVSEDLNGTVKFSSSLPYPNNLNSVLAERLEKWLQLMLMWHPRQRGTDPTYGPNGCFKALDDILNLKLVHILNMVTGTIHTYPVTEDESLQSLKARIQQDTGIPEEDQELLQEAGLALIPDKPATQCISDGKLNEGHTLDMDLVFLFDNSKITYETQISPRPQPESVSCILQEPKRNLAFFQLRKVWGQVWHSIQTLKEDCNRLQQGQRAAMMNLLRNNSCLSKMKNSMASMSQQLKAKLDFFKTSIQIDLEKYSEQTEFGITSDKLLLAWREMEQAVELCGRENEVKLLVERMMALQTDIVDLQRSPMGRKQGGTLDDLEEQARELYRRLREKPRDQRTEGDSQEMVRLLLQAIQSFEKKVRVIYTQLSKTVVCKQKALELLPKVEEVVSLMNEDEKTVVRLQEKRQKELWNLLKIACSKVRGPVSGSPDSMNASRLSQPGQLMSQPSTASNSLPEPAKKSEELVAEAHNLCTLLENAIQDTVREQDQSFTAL
Test: IKK2 Assay (TR-FRET)
Type: biochemical
Settings: IKK2 5 nM, GST-IκBα substrate 25 nM, ATP 1 μM, 30 minutes at room temperature, read-out: pIC50 against IKK2 (converted)
Description: Recombinant human IKKβ (residues 1-737) was expressed in baculovirus as a C-terminal GST-tagged fusion protein, and its activity was assessed using a time-resolved fluorescence resonance energy transfer (TR-FRET) assay. Briefly, IKK2 (5 nM final) diluted in assay buffer (50 mM HEPES, 10 mM MgCl2, 1 mM CHAPS pH 7.4 with 1 mM DTT and 0.01% w/v BSA) was added to wells containing various concentrations of compound or DMSO vehicle (3% final). The reaction was initiated by the addition of GST-IκBα substrate (25 nM final)/ATP (1 μM final), in a total volume of 30 μl. The reaction was incubated for 30 minutes at room temperature, then terminated by the addition of 15 μl of 50 mM EDTA. Detection reagent (15 μl) in buffer (100 mM HEPES pH 7.4, 150 mM NaCl and 0.1% w/v BSA) containing antiphosphoserine-IκBα-32/36 monoclonal antibody 12C2 (Cell Signalling Technology, Beverly Mass., USA) labelled with W-1024 europium chelate (Wallac OY, Turku, Finland), and an APC-labelled anti-GST antibody (Prozyme, San Leandro, Calif., USA) was added and the reaction was further incubated for 60 minutes at room temperature. The degree of phosphorylation of GST-IκBα was measured using a Packard Discovery plate reader (Perkin-Elmer Life Sciences, Pangbourne, UK) as a ratio of specific 665 nm energy transfer signal to reference europium 620 nm signal.

Row | IC50 | Compound
1 | ≤ 10 µM | CC(C)(C)OC(=O)N1CC=C(c2c[nH]c3c(C(N)=O)nc(-c4ccccc4)cc23)CC1 [Example 5, 1,1-dimethylethyl 4-[7-(aminocarbonyl)-5-phenyl-1H-pyrrolo[2,3-c]pyridin-3-yl]-3,6-dihydro-1(2H)-pyridinecarboxylate]
2 | ≤ 10 µM | CC(C)(C)OC(=O)N1CCC(c2c[nH]c3c(C(N)=O)nc(-c4ccccc4)cc23)CC1 [Example 6, 1,1-dimethylethyl 4-[7-(aminocarbonyl)-5-phenyl-1H-pyrrolo[2,3-c]pyridin-3-yl]-1-piperidinecarboxylate]
3 | ≤ 10 µM | NC(=O)c1nc(-c2ccccc2)cc2c(C3CCNCC3)c[nH]c12 [Example 7, 5-phenyl-3-(4-piperidinyl)-1H-pyrrolo[2,3-c]pyridine-7-carboxamide]
4 | ≤ 10 µM | CCS(=O)(=O)N1CCC(c2c[nH]c3c(C(N)=O)nc(-c4ccccc4)cc23)CC1 [Example 8, 3-[1-(ethylsulfonyl)-4-piperidinyl]-5-phenyl-1H-pyrrolo[2,3-c]pyridine-7-carboxamide]
5 | ≤ 10 µM | NC(=O)c1nc(-c2ccccc2)cc2cc[nH]c12 [Example 14, 5-phenyl-1H-pyrrolo[2,3-c]pyridine-7-carboxamide]
